pIC50: −log10 of the molar value. Non-standard residues stand in square brackets, D forms with d. Residues, ends and D or L forms follow the SMILES beside them. *: point of attachment. Sta = CC(C)C[C@H](N)[C@@H](O)CC(=O)O; Isovaleryl = CC(C)CC(=O)*
Experiments:
MT-4 cells = assay: Cytotoxicity by MTT uptake assay (maximal nontoxic concentration); format: cell-based; conditions: for maximal nontoxic concentration (MNC), concentration tested: reference inhibitors; for maximal nontoxic concentration (MNC), concentration tested / maximal nontoxic concentration (MNC): Table 3; for maximal nontoxic concentration (MNC): MTT uptake assay
Experimental: The compounds under study were first dissolved in DMSO and further diluted in cell growth medium without fetal serum. All the solutions were prepared ex tempore.
CC50 and MNC were detected by MTT uptake assay. IC50 was studied on MT-4 cells by microtiter infection assay exploring the protection of cells from the cytopathic effect of HIV measured by MTT test. Experiments under conditions of acute infection were performed in 96-well microplates with 6–8 parallels/experiment. Cell controls (MT-4 cells with medium only) and viral controls (virus infected MT-4 cells) were run with each experiment. For antivirus assays, HIV was added to each well to obtain multiplicity of infection 0.1 except the cell controls. Virus attachment was allowed for an hour at 37°C/5% CO2. The plates were incubated for 72–96 hours at 37°C/5% CO2. After that, MTT test was performed as described and absorbance of viable cells was measured colorimetrically at A540 nm. […] For antiviral assays, the mean values of experimental and control rows were compared and the percentage of cells protected (cell survival) under the appropriate concentration of the substance was plotted against the concentration of the substance to obtain IC50. The cell survival (% of cell protection) was calculated according to the following formula: […]

native HIV-1 protease = target: T1, native HIV-1 protease (Human immunodeficiency virus type 1 group M subtype B, UniProt P04585); assay: Antiprotease activity using native viral PR, spectrophotometric substrate utilization; format: biochemical; conditions: compound at MNC
T1 construct: The lysis of viral particles and releasing of the active enzyme (protease) was performed using disrupting (lysis) buffer; endogenous in cells; host or cells: Virions from supernatants of chronically infected H9/HTLV IIIB cells, concentrated 50x and lysed with Triton X-100
Experimental: A method described earlier by Broglia et al., 2006 [19], for detection of recombinant protease activity was modified to use native viral protease. As a source of native HIV-1 protease, again suspension of concentrated viral stock (50x) from chronically infected H9/HTLV IIIB cell supernatants was used. The lysis of viral particles and releasing of the active enzyme (protease) was performed using disrupting (lysis) buffer containing 2.5% Triton X-100 in phosphate buffer. The concentration of the tissue culture fluid containing the virus was done by ultracentrifugation in Biofuge Stratos, Heraeus, for 1 hour, at 4°C and 35000 rev/min. The pellet was resuspended to obtain 50x concentrate in disrupting buffer.
The following reaction mixture was prepared for each experiment : 1000 μL phosphate buffer (20 mM, pH 6.0); 20 μL HIV protease substrate III ([…], 760 μM; Bachem, Switzerland) in DMSO, prepared ex tempore; 20 μL enzyme (stock HIV) taken from a solution containing 25 μL disrupting (lysis) buffer + 100 μL HIV-stock, incubated 40 min at 37°C prior to experiment.
The HIV-1 PR activity was measured using direct spectrophotometric reading of the enzyme reaction substrate utilization at 300 nm, at room temperature and 1 cm pathlength, using T80 + UV-Vis spectrophotometer (PG instruments). The initial reaction velocity (V0) was adjusted to be 0.0020–0.0030 ΔAbs/min by varying the enzyme activity (viral concentration). The tested compound and the reference inhibitor (pepstatin used here) was added to the reaction mixture prior to enzyme, in order to perform the screening for inhibitory effect. IC50 was defined as the concentration of the compound tested that decreases the velocity of the reaction by 50% of the initial velocity without tested (reference) compound.

HIV-1 III B = assay: Microtiter infection assay, protection of MT-4 cells from HIV cytopathic effect (MTT); format: cell-based; conditions: for Infection assay MTT- % cell survival / inhibition of virus infectivity / viral replication in MT-4 cells: HIV-1-infected MT-4 cells; for Infection assay MTT- % cell survival: compound at MNC, 72–96 hours
Experimental: The evaluation of anti-HIV effect was done by an in vitro rapid and sensitive microtiter infection assay based on cytolysis quantitation by vital dye (MTT) uptake as an endpoint for infection. Additionally, the effect of inhibitors on endogenous reverse transcriptase (RT) activity of HIV-1 III B-infected MT-4 supernatants was considered as a marker for the ability of blocking HIV-1 replication. MT-4 cells were infected and incubated with each inhibitor for 72–96 hours, and then RT activity was measured in the cell supernatants according to guidelines in the HS-Lenti Kit-RT assay (Cavidi, Sweden). A study of direct effect of the newly synthesized 4-hydroxycoumarins on exogenous recombinant RT (rRT) was also performed. Further, all the compounds were tested for anti-HIV-1 PR activity. Table 3 represents the results of microtiter infection assay using MTT and inhibition of HIV-1 PR activity. The experiments were carried out in maximal nontoxic concentration (MNC) for each compound.
MT-4—a human lymphoblastoid suspension cell line, kindly provided by Gianfranco Pancino— Institute Pasteur, (Unite de Regulation des Infections Retrovirales, Paris, France) represent a classical model for experimental productive infection with HIV-1 III B strain and used as a routine target for study of effect of putative HIV inhibitors in cell culture.
As a source of HIV-1, supernatants of H9/HTLV III B line—a gift from Dr. R. Gallo (NIH, USA)— were used. Supernatants were collected and centrifuged to remove the cells, and virus stocks were prepared with known p24 antigen content (460 pg/mL, Murex HIV Antigen mAB test), RT activity (565.3 pg RT/mL, HS-Lenti RT Activity Kit, Cavidi, Sweden), and infectivity (2 × 10^6 infectious virions/mL, microtiter infection assay). MT-4 and H9/HTLV III B cells were grown in RPMI 1640 supplemented with 10% FCS (invitrogen).
The following parameters were studied: cytotoxic concentration 50—CC50, where possible (the concentration preventing death of 50% of […] cells), maximal nontoxic concentration—MNC, and inhibitory concentration 50-IC50 (concentration inhibiting by 50% the viral replication). CC50 and MNC were detected by MTT uptake assay. IC50 was studied on MT-4 cells by microtiter infection assay exploring the protection of cells from the cytopathic effect of HIV measured by MTT test. Experiments under conditions of acute infection were performed in 96-well microplates with 6–8 parallels/experiment. Cell controls (MT-4 cells with medium only) and viral controls (virus infected MT-4 cells) were run with each experiment. For antivirus assays, HIV was added to each well to obtain multiplicity of infection 0.1 except the cell controls. Virus attachment was allowed for an hour at 37°C/5% CO2. The plates were incubated for 72–96 hours at 37°C/5% CO2. After that, MTT test was performed as described and absorbance of viable cells was measured colorimetrically at A540 nm. […] For antiviral assays, the mean values of experimental and control rows were compared and the percentage of cells protected (cell survival) under the appropriate concentration of the substance was plotted against the concentration of the substance to obtain IC50. The cell survival (% of cell protection) was calculated according to the following formula:
(1) % cell protection =A540X−A540 Control HIV/ A540 Cell Control−A540 Control HIV ×100, where X is the mean value of A540 of HIV-infected cells treated with appropriate concentration of the compound under study; control HIV is the mean value of A540 of HIV-infected cells without any compound added; cell control is the mean value of A540 of uninfected and untreated with inhibitor cells.

HIV-1 protease = test system: HIV-1 protease; parameters: method as in PMID 8185622; conditions: binding activity of the experimental ligands on HIV-1 protease; cited from earlier work

Molecule | % Inhibition of HIV-1 protease activity (native HIV-1 protease) [%] | maximal nontoxic concentration (MNC) (MT-4 cells) | Infection assay MTT- % cell survival (HIV-1 III B) [%] | pIC50 (HIV-1 protease) | further results
CC(C)CC(=O)N[C@H](C(=O)N[C@H](C(=O)N[C@@H](CC(C)C)[C@@H](O)CC(=O)N[C@@H](C)C(=O)N[C@@H](CC(C)C)[C@@H](O)CC(=O)O)C(C)C)C(C)C [Pepstatin, pepstatin, reference compound] (Isovaleryl-VV[Sta]A[Sta]-OH) | 100 |  |  |  | maximal nontoxic concentration (MNC), concentration tested (MT-4 cells): Pepstatin® (4.5 × 10^−5 M)
CCOC(=O)C(C(C)=O)C(c1ccc([N+](=O)[O-])cc1)c1c(O)c2ccccc2oc1=O (stereo not shown) [(8), Ethyl 2-[(4-Hydroxy-2-Oxo-2H-Chromen-3-yl)(4-Nitrophenyl)Methyl]-3-Oxobutanoate] | 0 | (8) (0.001) μM | 0 |  | 
Nc1nc(NC2CC2)c2ncn([C@H]3C=C[C@@H](CO)C3)c2n1 [Abacavir, reference compound] |  |  | 98 |  | maximal nontoxic concentration (MNC), concentration tested (MT-4 cells): Abacavir® (35 × 10^−6 M)
3-benzyl-4-hydroxy-8-phenyl-2H-chromen-2-one [Ligand (4)] |  |  |  | 5.09 | 
CCOC(=O)C(C(C)=O)C(c1ccc(O)cc1)c1c(O)c2ccccc2oc1=O (stereo not shown) [(9), Ethyl 2-[(4-Hydroxy-2-Oxo-2H-Chromen-3-yl)(4-Hydroxyphenyl)Methyl]-3-Oxobutanoate] | 0 | (9) (0.0001) μM | 0 |  | 
CCOC(=O)C(C(C)=O)C(c1ccc(C(=O)O)cc1)c1c(O)c2ccccc2oc1=O (stereo not shown) [(11), 4-[1-(4-Hydroxy-2-Oxo-2H-Chromen-3-yl)-2-(Ethoxycarbonyl)-3-Oxobutyl]Benzoic Acid] | 0 | (11) (0.0001) μM | 0 |  | 
CCOC(=O)C(C(C)=O)C(c1cccc([N+](=O)[O-])c1)c1c(O)c2ccccc2oc1=O (stereo not shown) [Compound (7), Ethyl 2-[(4-Hydroxy-2-Oxo-2H-Chromen-3-yl)(3-Nitrophenyl)Methyl]-3-Oxobutanoate] | 25 | (7) (0.001) μM | 78 |  | maximal nontoxic concentration (MT-4 cells; as stated in abstract): 1 mM; inhibition of virus infectivity / viral replication in MT-4 cells (HIV-1 III B): 76–78%; pIC50 (HIV-1 III B; Human immunodeficiency virus 1, MT4, read-out: IC50 (concentration inhibiting by 50% the viral replication)): 11.00
3-(3,4-dimethoxybenzyl)-4-hydroxy-2H-chromen-2-one [Ligand (2)] |  |  |  | 4.08 | 
CCOC(=O)C(C(C)=O)C(c1ccc(O)c(O)c1)c1c(O)c2ccccc2oc1=O (stereo not shown) [(10), Ethyl 2-[(3,4-Dihydroxyphenyl)(4-Hydroxy-2-Oxo-2H-Chromen-3-yl)Methyl]-3-Oxobuta-Noate] | 16 | (10) (0.0001) μM | 30 |  | inhibition of virus infectivity / viral replication in MT-4 cells (HIV-1 III B): inhibited viral replication
4-hydroxy-3-(3-oxo-1-phenylbutyl)-2H-chromen-2-one [Ligand (5)] |  |  |  | 4.74 | 
4-hydroxy-3-(1-phenoxypropyl)-2H-chromen-2-one [Ligand (1)] |  |  |  | 5.57 | 
CC(=O)C(C(C)=O)C(c1ccc(O)cc1)c1c(O)c2ccccc2oc1=O (stereo not shown) [(12), 3-[(4-Hydroxy-2-Oxo-2H-Chromen-3-yl)(4-Hydroxyphenyl)Methyl]Pentane-2,4-Dione] | 0 | (12) (0.001) μM | 0 |  | 
3-(3,4-dimethoxybenzyl)-4-hydroxy-8-methyl-2H-chromen-2-one [Ligand (3)] |  |  |  | 4.64 | 

From PMC3263710, “Synthesis and Inhibiting Activity of Some 4-Hydroxycoumarin Derivatives on HIV-1 Protease” (ISRN Pharmaceutics, 2011)
